Values quoted from earlier work as cited in patent US6699701B1, “Method and device for sanitation using bacteriophages” (priority 2000, dated 2004).

Test system: bacterial counts
Settings: fresh-cut fruits, most effective chemical sanitizer

In the case of `OO` [hydrogen peroxide], the “maximum reduction rate in bacterial counts” value is given as ≤ 1.3 logs.
